System: Caco-2 cell monolayers
Test: Initial screening of permeability enhancers with peramivir across Caco-2 cell monolayers
Conditions: with glycerol or Capmul MCM L8 as enhancer; results not shown

`CCC(CC)[C@H](NC(C)=O)[C@@H]1[C@H](O)[C@@H](C(=O)O)C[C@H]1N=C(N)N` [peramivir] was tested, and the “drug transport across Caco-2 cell monolayers” value was “substantially increased drug transport”.

Reference: patent US20140314857A1, “FORMULATIONS FOR ENHANCED BIOAVAILABILITY OF ZANAMIVIR” (priority 2012, published 2014)
